Target: T1, human CCR6 (Homo sapiens, UniProt P51684)
T1 construct: expressed in transfected cells; host or cells: Ba/F3 cells (murine pro-B line), hCCR6-transfected, CMV promoter, sodium butyrate induction
T1 sequence (P51684 1-374): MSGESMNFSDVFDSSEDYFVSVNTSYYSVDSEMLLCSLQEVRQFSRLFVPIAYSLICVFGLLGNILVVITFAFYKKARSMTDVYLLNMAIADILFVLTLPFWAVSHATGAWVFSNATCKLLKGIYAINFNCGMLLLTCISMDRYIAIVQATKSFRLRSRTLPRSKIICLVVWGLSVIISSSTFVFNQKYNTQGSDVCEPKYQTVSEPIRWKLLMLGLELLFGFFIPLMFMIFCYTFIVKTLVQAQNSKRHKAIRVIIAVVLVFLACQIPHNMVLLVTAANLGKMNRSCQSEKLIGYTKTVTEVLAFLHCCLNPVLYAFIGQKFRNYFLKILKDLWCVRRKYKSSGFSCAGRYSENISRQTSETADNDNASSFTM
Assay: Migration (chemotaxis) assay, hCCR6-transfected Ba/F3 cells toward CCL20
Assay type: cell-based
Conditions: hCCR6-transfected Ba/F3 cells in human serum; recombinant human CCL20 10 nM; 37° C. 45 minutes; read-out: Potency (IC50 value in the migration assay)
Excerpt: A chemotaxis assay can be used to determine the efficacy of potential receptor antagonists at blocking the migration mediated through chemokine receptors, such as CCR6. This assay is routinely performed using the ChemoTX® microchamber system with a 5-μm pore-sized polycarbonate membrane. Chemokine receptor-expressing cells are required for such an assay. In this case, Ba/F3 cells (Palacios et al., Nature, 309:126, 1984) transfected with the gene for human CCR6 under control of the CMV promotor were used. To begin such an assay, hCCR6-transfected Ba/F3 cells are first grown for 24 hr in medium supplemented with sodium butyrate, which increases CCR6 transcription via the CMV promotor. The prepared Ba/F3 cells, are collected by centrifugation at 400×g at room temperature, then suspended at 4 million/ml in human serum. The compound being tested is serially diluted from a maximum final concentration of 10 μM (or an equivalent volume of its solvent (DMSO)) and is then added to the cell/serum mixture. Separately, recombinant human CCL20 (MIP-3α/LARC) at its EC50 concentration (10 nM) is placed in the lower wells of the ChemoTX® plate. The 5-μm (pore size) polycarbonate membrane is placed onto the plate, and 20 μL of the cell/compound mixture is transferred onto each well of the membrane. The plates are incubated at 37° C. for 45 minutes, after which the polycarbonate membranes are removed and 5 μl of the DNA-intercalating dye CyQUANT (Invitrogen, Carlsbad, CA) is added to the lower wells. The amount of fluorescence, corresponding to the number of migrated cells, is measured using a Spectrafluor Plus plate reader (TECAN, San Jose, CA).

IC50 [nM] | SMILES
< 5 | O=C1NCc2cc(-c3ccc(S(=O)(=O)N4CCC(Nc5ccc(C(F)(F)F)cn5)CC4)cc3)ccc21 [Example 1.117]
100 to 10000 | O=S(=O)(c1ccc(-c2ccc3c(c2)OCCO3)cc1)N1CCC(Nc2ccc(C(F)(F)F)cn2)CC1 [Example 1.032]
5 to 100 | NC(=O)N1CCC2(CC1)C(=O)Nc1ccc(-c3ccc(S(=O)(=O)N4CCC(Nc5ccc(C(F)(F)F)cn5)CC4)cc3)cc12 [Example 1.025]
100 to 10000 | CC(=O)N1CCCN(c2ccc(S(=O)(=O)N3CCC(Nc4ccc(C(F)(F)F)cn4)CC3)cc2)CC1 [Example 1.201]
100 to 10000 | O=C1Cc2cc(-c3ccc(S(=O)(=O)N4CCC(Nc5ccc(C(F)(F)F)cn5)CC4)cc3)cc(C(=O)O)c2N1 [Example 1.008]
5 to 100 | O=C1Cc2ncc(-c3ccc(S(=O)(=O)N4CCC(Nc5ccc(C(F)(F)F)cn5)CC4)cc3)cc2N1 [Example 1.022]
5 to 100 | O=S(=O)(c1ccc(-c2ccnc3[nH]ccc23)cc1)N1CCC(Nc2ccc(C(F)(F)F)cn2)CC1 [Example 1.083]
5 to 100 | CC(C)(C)OC(=O)NCC1CN(c2ccc(S(=O)(=O)N3CCC(Nc4ccc(C(F)(F)F)cn4)CC3)cc2)C1 [Example 1.143]
< 5 | CC(C)(C)OC(=O)NCCn1cc(C#N)c2cc(-c3ccc(S(=O)(=O)N4CCC(Nc5ccc(C(F)(F)F)cn5)CC4)cc3)cnc21 [Example 1.014]
5 to 100 | O=C(CO)N1CCN(c2ccc(S(=O)(=O)N3CCC(Nc4ccc(C(F)(F)F)cn4)CC3)cc2)CC1 [Example 1.194]
5 to 100 | O=C1NCCc2nc(-c3ccc(S(=O)(=O)N4CCC(Nc5ccc(C(F)(F)F)cn5)CC4)cc3)sc21 [Example 1.048]
5 to 100 | Cc1nc2cc(-c3ccc(S(=O)(=O)N4CCC(Nc5ccc(C(F)(F)F)cn5)CC4)cc3)ccc2[nH]1 [Example 1.092]
5 to 100 | CC1(O)CCN(c2ccc(S(=O)(=O)N3CCC(Nc4ccc(C(F)(F)F)cn4)CC3)cc2)CC1 [Example 1.182]
5 to 100 | O=c1[nH]c2ccc(-c3ccc(S(=O)(=O)N4CCC(Nc5ccc(C(F)(F)F)cn5)CC4)cc3)cc2n1C1COC1 [Example 1.041]
5 to 100 | CC1(CC(N)=O)CCN(c2ccc(S(=O)(=O)N3CCC(Nc4ccc(C(F)(F)F)cn4)CC3)cc2)CC1 [Example 1.136]
< 5 | O=C1NCCCC12CCN(c1ccc(S(=O)(=O)N3CCC(Nc4ccc(C(F)(F)F)cn4)CC3)cc1)CC2 [Example 1.165]
< 5 | NC(=O)N1CC2(C1)CN(c1ccc(S(=O)(=O)N3CCC(Nc4ccc(C(F)(F)F)cn4)CC3)cc1)C2 [Example 1.154]
< 5 | N#Cc1c[nH]c2ncc(-c3ccc(S(=O)(=O)N4CCC(Nc5ccc(C(F)(F)F)cn5)CC4)cc3)cc12 [Example 1.088]
100 to 10000 | O=S(=O)(c1ccc(N2CCC(O)CC2)nc1)N1CCC(Nc2ccc(C(F)(F)F)cn2)CC1 [Example 1.209]
100 to 10000 | O=S(=O)(c1ccc(-c2ccc3c(c2)CCC3)cc1)N1CCC(Nc2ccc(C(F)(F)F)cn2)CC1 [Example 1.120]
< 5 | O=S(=O)(c1ccc(-c2cnc3[nH]ccc3c2)cc1)N1CCC(Nc2ccc(C(F)(F)F)cn2)CC1 [Example 1.089]
< 5 | NC(=O)NCC1CCN(c2ccc(S(=O)(=O)N3CCC(Nc4ccc(C(F)(F)F)cn4)CC3)cc2)CC1 [Example 1.146]
< 5 | O=C1Nc2ncc(-c3ccc(S(=O)(=O)N4CCC(Nc5ccc(C(F)(F)F)cn5)CC4)cc3)cc2C12CCOCC2 [Example 1.064]
< 5 | Cn1nc(C(N)=O)c2cc(-c3ccc(S(=O)(=O)N4CCC(Nc5ccc(C(F)(F)F)cn5)CC4)cc3)ccc21 [Example 1.090]
5 to 100 | NC(=O)CC1CCN(c2ccc(S(=O)(=O)N3CCC(Nc4ccc(C(F)(F)F)cn4)CC3)cc2)CC1 [Example 1.167]
5 to 100 | O=C1COC2(CCN(c3ccc(S(=O)(=O)N4CCC(Nc5ccc(C(F)(F)F)cn5)CC4)cc3)CC2)CN1 [Example 1.147]
5 to 100 | NC(=O)C1CCCN(c2ccc(S(=O)(=O)N3CCC(Nc4ccc(C(F)(F)F)cn4)CC3)cc2)C1 (stereo not shown) [Example 1.230]

IC50 [nM] | SMILES
5 to 100 | CC(C)(O)OC(=O)N1CCC2(CC1)C(=O)Nc1ccc(-c3ccc(S(=O)(=O)N4CCC(Nc5ccc(C(F)(F)F)cn5)CC4)cc3)cc12 [Example 1.044]
5 to 100 | NC(=O)N1CCC12CN(c1ccc(S(=O)(=O)N3CCC(Nc4ccc(C(F)(F)F)cn4)CC3)cc1)C2 [Example 1.142]
5 to 100 | O=C1NCc2ncc(-c3ccc(S(=O)(=O)N4CCC(Nc5ccc(C(F)(F)F)cn5)CC4)cc3)cc21 [Example 1.010]
< 5 | O=S(=O)(c1ccc(-c2ccc3[nH]cnc3c2)cc1)N1CCC(Nc2ccc(C(F)(F)F)cn2)CC1 [Example 1.110]
< 5 | Cc1c(-c2ccc(S(=O)(=O)N3CCC(Nc4ccc(C(F)(F)F)cn4)CC3)cc2)cnc2[nH]ccc12 [Example 1.023]
5 to 100 | O=S(=O)(c1ccc(N2CCOCC2)cc1)N1CCC(Nc2ccc(C(F)(F)F)cn2)CC1 [Example 1.129]
5 to 100 | O=C1c2ccc(-c3ccc(S(=O)(=O)N4CCC(Nc5ccc(C(F)(F)F)cn5)CC4)cc3)cc2CN1CCO [Example 1.021]
5 to 100 | NC(=O)N1C[C@@H]2CN(c3ccc(S(=O)(=O)N4CCC(Nc5ccc(C(F)(F)F)cn5)CC4)cc3)C[C@@H]2C1 [Example 1.176]
< 5 | Nc1nc2cc(-c3ccc(S(=O)(=O)N4CCC(Nc5ccc(C(F)(F)F)cn5)CC4)cc3)ccc2o1 [Example 1.118]
5 to 100 | O=c1[nH]c(=O)c2ccc(-c3ccc(S(=O)(=O)N4CCC(Nc5ccc(C(F)(F)F)cn5)CC4)cc3)cc2[nH]1 [Example 1.057]
100 to 10000 | O=S(=O)(c1ccc(C2CCCNC2)cc1)N1CCC(Nc2ccc(C(F)(F)F)cn2)CC1 (stereo not shown) [Example 1.225]
< 5 | N#Cc1c[nH]c2ncc(-c3ccc(S(=O)(=O)N4CCC(Nc5ccc(C(F)(F)F)cc5)CC4)cc3)cc12 [Example 1.056]
5 to 100 | O=S(=O)(c1ccc(N2CCC3(CC2)CC(O)C3)cc1)N1CCC(Nc2ccc(C(F)(F)F)cn2)CC1 [Example 1.158]
< 5 | Nc1cc2cc(-c3ccc(S(=O)(=O)N4CCC(Nc5ccc(C(F)(F)F)cn5)CC4)cc3)cnc2o1 [Example 1.081]
100 to 10000 | CN1CCN(c2ccc(S(=O)(=O)N3CCC(Nc4ccc(C(F)(F)F)cn4)CC3)cc2)CC1 [Example 1.232]
5 to 100 | O=C1Cc2ccc(-c3ccc(S(=O)(=O)N4CCC(Nc5ccc(C(F)(F)F)cn5)CC4)cc3)cc2CN1 [Example 1.007]
100 to 10000 | O=C1NC(=O)C2(CCCN(c3ccc(S(=O)(=O)N4CCC(Nc5ccc(C(F)(F)F)cn5)CC4)cc3)C2)N1 (stereo not shown) [Example 1.224]
5 to 100 | NC(=O)N1CCN(c2ccc(S(=O)(=O)N3CCC(Nc4ccc(C(F)(F)F)cn4)CC3)cc2)CC1 [Example 1.204]
5 to 100 | O=c1[nH]c2ncc(-c3ccc(S(=O)(=O)N4CCC(Nc5ccc(C(F)(F)F)cn5)CC4)cc3)cc2o1 [Example 1.065]
< 5 | O=C1NCCc2ccc(-c3ccc(S(=O)(=O)N4CCC(Nc5ccc(C(F)(F)F)cn5)CC4)cc3)cc21 [Example 1.066]
5 to 100 | NC(=O)N1CC(C2CN(c3ccc(S(=O)(=O)N4CCC(Nc5ccc(C(F)(F)F)cn5)CC4)cc3)C2)C1 [Example 1.145]
< 5 | O=c1[nH]c2cc(-c3ccc(S(=O)(=O)N4CCC(Nc5ccc(C(F)(F)F)cn5)CC4)cc3)cnc2[nH]1 [Example 1.067]
100 to 10000 | NC(=O)C1CC12CCN(c1ccc(S(=O)(=O)N3CCC(Nc4ccc(C(F)(F)F)cn4)CC3)cc1)CC2 (stereo not shown) [Example 1.137]
100 to 10000 | NC(=O)NC1CC2(C1)CN(c1ccc(S(=O)(=O)N3CCC(Nc4ccc(C(F)(F)F)cn4)CC3)cc1)C2 [Example 1.159]
100 to 10000 | NS(=O)(=O)C1CCN(c2ccc(S(=O)(=O)N3CCC(Nc4ccc(C(F)(F)F)cn4)CC3)cc2)CC1 [Example 1.189]
< 5 | O=C1Nc2ccc(-c3ccc(S(=O)(=O)N4CCC(Nc5ccc(C(F)(F)F)cn5)CC4)cc3)cc2C12CCOCC2 [Example 1.036]

SMILES | IC50 [nM]
O=S(=O)(c1ccc(N2[C@@H]3CC[C@H]2C[C@@H](O)C3)cc1)N1CCC(Nc2ccc(C(F)(F)F)cn2)CC1 [Example 1.180] | 5 to 100
CN1CCC2(CC1)C(=O)Nc1ccc(-c3ccc(S(=O)(=O)N4CCC(Nc5ccc(C(F)(F)F)cn5)CC4)cc3)cc12 [Example 1.006] | 100 to 10000

— patent US12012403B2, “Aryl sulfonyl compounds as CCR6 inhibitors” (CHEMOCENTRYX, INC., priority 2021, dated 2024)
